This data set is described as follows: molar enthalpy of vaporization or sublimation. The note with it: 298.15 K, drop calorimetry.

Numbers after ± are expanded uncertainties.

As for `Cc1ccc(C#N)n1C` [1,5-dimethyl-2-pyrrolecarbonitrile], where the note is “Crystal”, the molar enthalpy is 18.7 ± 0.765 kcal/mol. For `N#Cc1ccc[nH]1` [2-cyanopyrrole;], the molar enthalpy (Liquid) turned out to be 15.6 ± 0.669 kcal/mol.

Source of the values: the NIST ThermoML archive (doi:10.1016/j.jct.2011.12.019).
